ChEMBL document CHEMBL6071165, “Design, synthesis and biological evaluation of plant-derived miliusol derivatives achieve TNBC profound regression in vivo” (Eur J Med Chem, 2024)
The source made the active and inactive calls. The rule behind the calls is not given here.

How the values were obtained:
BT-549 [1] = assay: Antiproliferative activity against human BT-549 cells xenografted in female BALB/c mouse model assessed as fold change in cleavage of caspase-3 level at 20 mg/kg administered subcutaneously incubated for 24 hrs by Western blot analysis (reference value: 1.00%); assay type: functional; settings: route sc
MDA-MB-231 [2] = assay: Induction of apoptosis in human MDA-MB-231 cells assessed as necrotic cells at 1 uM incubated for 24 hrs by Annexin V-PI staining based flow cytometric analysis (reference value: 1.29%); assay type: functional
MDA-MB-231 [3] = assay: Induction of ER stress in human MDA-MB-231 cells assessed as upregulation of BIP protein level at 1 uM incubated for 24 hrs by DAPI staining based immunofluorescence analysis; assay type: functional, cell-based
BT-549 [4] = assay: Induction of apoptosis in human BT-549 cells assessed as upregulation of cleavage of caspase-8 expression at 0.5 to 2 uM incubated for 24 hrs by Western blot analysis; assay type: functional, cell-based; settings: dose 0.5-2 µM
[5] = Toxicity in female BALB/c mouse xenografted with human BT-549 cells assessed as effect on pathological changes in heart at 5 to 20 mg/kg, sc by H and E staining based analysis; assay type: organism-based; settings: in vivo, dose 5-20 mg/kg
MDA-MB-231 [6] = assay: Antiproliferative activity against human MDA-MB-231 cells xenografted in female BALB/c mouse model assessed as fold change in downregulation of MMP-2 protein level at 5 mg/kg administered subcutaneously incubated for 24 hrs by Western blot analysis (reference value: 1.00%); assay type: functional; settings: route sc
Mitochondrial membrane = assay: Disruption of mitochondrial potential loss in human MDA-MB-231 cells assessed as decrease in JC-1 aggregates at 1 uM incubated for 24 hrs by JC-1 staining based flow cytometric analysis (Rvb =98.1%); assay type: cell membranes; set-up: scale not given: the % may be the effect or the level left
MDA-MB-231 [7] = assay: Induction of apoptosis in human MDA-MB-231 cells assessed as viable cells at 0.5 uM incubated for 24 hrs by Annexin V-PI staining based flow cytometric analysis (reference value: 96.5%); assay type: functional; settings: read-out: Activity
BT-549 [8] = assay: Induction of apoptosis in human BT-549 cells assessed as late apoptotic cells at 2 uM incubated for 24 hrs by Annexin V-PI staining based flow cytometric analysis (reference value: 2.95%); assay type: functional
MDA-MB-231 [9] = assay: Antiproliferative activity against human MDA-MB-231 cells xenografted in female BALB/c mouse model assessed as inhibition of Ki-67 expression at 5 to 20 mg/kg administered subcutaneously by immunohistochemical staining based microscopic analysis; assay type: functional, organism-based; settings: dose 5-20 mg/kg, route sc
[10] = Antiproliferative activity against human MCF-10A cells assessed as inhibition of cell proliferation incubated for 48 hrs by MTT assay; assay type: toxicity, cell-based
[11] = Antiproliferative activity against human MCF-10A cells assessed as inhibition of cell proliferation incubated for 24 hrs by MTT assay; assay type: toxicity, cell-based
BT-549 [12] = assay: Inhibition of glycolysis in human BT-549 cells assessed as decrease in LDHA protein level at 0.5 to 2 uM incubated for 24 hrs by Western blot analysis; assay type: functional, cell-based; settings: dose 0.5-2 µM
BT-549 [13] = assay: Induction of ER stress in human BT-549 cells assessed as increase in calcium ion content at 2 uM incubated for 24 hrs by Fluo-3AM staining based flow cytometric analysis; assay type: functional, cell-based
BT-549 [14] = assay: Induction of apoptosis in human BT-549 cells assessed as upregulation of cleavage of caspase-3 expression at 0.5 to 2 uM incubated for 24 hrs by Western blot analysis; assay type: functional, cell-based; settings: dose 0.5-2 µM
BT-549 [15] = assay: Induction of ER stress in human BT-549 cells assessed as appearance of large number of vacuoles at 1 uM incubated for 24 hrs by TEM analysis; assay type: functional, cell-based
BT-549 [16] = assay: Inhibition of colony formation in human BT-549 cells incubated for 7 days by Crystal violet staining based analysis; assay type: functional, cell-based; settings: dose 0.5-2 µM, time 7.0 day
MDA-MB-231 [17] = assay: Induction of ER stress in human MDA-MB-231 cells assessed as activation of BIP protein level incubated for 24 hrs by Western blot analysis; assay type: functional, cell-based; settings: dose 0.5-2 µM
[18] = Toxicity in female BALB/c mouse xenografted with human MDA-MB-231 cells assessed as effect on pathological changes in liver at 5 to 20 mg/kg, sc by H and E staining based analysis; assay type: organism-based; settings: in vivo, dose 5-20 mg/kg
MDA-MB-231 [19] = assay: Induction of ER stress in human MDA-MB-231 cells assessed as activation of CHOP protein level incubated for 24 hrs by Western blot analysis; assay type: functional, cell-based; settings: dose 0.5-2 µM
BT-549 [20] = assay: Induction of apoptosis in human BT-549 cells assessed as late apoptotic cells at 1 uM incubated for 24 hrs by Annexin V-PI staining based flow cytometric analysis (reference value: 2.95%); assay type: functional
BT-549 [21] = assay: Inhibition of glycolysis in human BT-549 cells assessed as reduction in lactate production at 0.5 to 2 uM; assay type: functional, cell-based; settings: dose 0.5-2 µM
BT-549 [22] = assay: Induction of apoptosis in human BT-549 cells assessed as viable cells at 0.5 uM incubated for 24 hrs by Annexin V-PI staining based flow cytometric analysis (reference value: 93.0%); assay type: functional; settings: read-out: Activity
BT-549 [23] = assay: Antiproliferative activity against human BT-549 cells xenografted in female BALB/c mouse model assessed as fold change in upregulation of BIP protein level at 10 mg/kg administered subcutaneously incubated for 24 hrs by Western blot analysis (reference value: 1.00%); assay type: functional; settings: route sc
BT-549 [24] = assay: Inhibition of cell migration in human BT-549 cells assessed as reduction in MMP-2 protein level at 1 uM incubated for 24 hrs by DAPI staining based immunofluorescence analysis; assay type: functional
MDA-MB-231 [25] = assay: Antitumor activity against human MDA-MB-231 cells xenografted in female BALB/c mouse model assessed as reduction in tumor volume administered subcutaneously and measured every day; assay type: functional, cell-based; settings: dose 5-20 mg/kg, route sc
BT-549 [26] = assay: Antiproliferative activity against human BT-549 cells xenografted in female BALB/c mouse model assessed as fold change in upregulation of BIP protein level at 20 mg/kg administered subcutaneously incubated for 24 hrs by Western blot analysis (reference value: 1.00%); assay type: functional; settings: route sc
MDA-MB-231 [27] = assay: Downregulation of c-Jun level in human MDA-MB-231 cells incubated for 24 hrs by Western blot analysis; assay type: functional, cell-based; settings: dose 0.5-2 µM
MDA-MB-231 [28] = assay: Antiproliferative activity against human MDA-MB-231 cells xenografted in female BALB/c mouse model assessed as fold change in upregulation of BAX protein level at 5 mg/kg administered subcutaneously incubated for 24 hrs by Western blot analysis (reference value: 1.00%); assay type: functional; settings: route sc
BT-549 [29] = assay: Antitumor activity against human BT-549 cells xenografted in female BALB/c mouse model assessed as reduction of proliferation rate of tumor at 5 to 20 mg/kg administered subcutaneously and measured every day; assay type: functional, organism-based; settings: dose 5-20 mg/kg, route sc
MDA-MB-231 [30] = assay: Inhibition of cell migration in human MDA-MB-231 cells assessed as decrease in MMP-2 level incubated for 24 hrs by Western blot analysis; assay type: functional, cell-based; settings: dose 0.5-2 µM
[31] = Toxicity in female BALB/c mouse xenografted with human BT-549 cells assessed as effect on pathological changes in spleen at 5 to 20 mg/kg, sc by H and E staining based analysis; assay type: organism-based; settings: in vivo, dose 5-20 mg/kg
MDA-MB-231 [32] = assay: Antiproliferative activity against human MDA-MB-231 cells xenografted in female BALB/c mouse model assessed as fold change in cleavage of caspase-3 level at 10 mg/kg administered subcutaneously incubated for 24 hrs by Western blot analysis (reference value: 1.00%); assay type: functional; settings: route sc
MDA-MB-231 [33] = assay: Inhibition of cell migration in human MDA-MB-231 assessed as reduction in wound healing ability at 0 to 2 uM incubated for 48 hrs by Wound healing assay; assay type: functional, cell-based; settings: dose 0-2 µM

Question: Which results are given for `CC(C)=CCC/C(C)=C/[C@H]1OC(=O)CC12C[C@H](OC(=O)Cc1ccc(NC(=O)/C=C/c3ccccc3)cc1)C=CC2=O` (some centres undefined)?
Answer: fold change (FC) (BT-549 [1]): 1.74; Activity (MDA-MB-231 [2]): 15.9%; Activity (MDA-MB-231 [3]): Active; Activity (BT-549 [4]): Active; Activity [5]: Non-Toxic; fold change (FC) (MDA-MB-231 [6]): 0.44; Activity (Mitochondrial membrane): 58.2%; viability at 0.5 µM (MDA-MB-231 [7]): 70.1%; Activity (BT-549 [8]): 50.1%; Activity (MDA-MB-231 [9]): Active; IC50 at 48 h [10]: 16 µM; IC50 at 24 h [11]: 57.1 µM; inhibition (BT-549 [12]): Active; Activity (BT-549 [13]): Active; Activity (BT-549 [14]): Active; Activity (BT-549 [15]): Active; inhibition (BT-549 [16]): Dose-Dependent Effect; Activity (MDA-MB-231 [17]): Dose-Dependent Effect; Activity [18]: Non-Toxic; Activity (MDA-MB-231 [19]): Dose-Dependent Effect; Activity (BT-549 [20]): 24.9%; inhibition (BT-549 [21]): Active; viability at 0.5 µM (BT-549 [22]): 91.7%; fold change (FC) (BT-549 [23]): 1.9; inhibition (BT-549 [24]): Active; Activity (MDA-MB-231 [25]): Dose-Dependent Effect; fold change (FC) (BT-549 [26]): 2.37; Activity (MDA-MB-231 [27]): Dose-Dependent Effect; fold change (FC) (MDA-MB-231 [28]): 1.05; Activity (BT-549 [29]): Active; inhibition (MDA-MB-231 [30]): Dose-Dependent Effect; Activity [31]: Non-Toxic; fold change (FC) (MDA-MB-231 [32]): 1.67; inhibition (MDA-MB-231 [33]): Active
